# Assay results: patent publication US7741281B2, “Hepatitis C virus inhibitors” (Bristol-Myers Squibb Company, priority 2005, dated 2010)
# Like-named read-outs stand apart in the source and are kept apart here.
# Experiments:
# [1] = target: T1, HCV NS3/4A protease complex, H77 strain (Hepatitis C virus genotype 1a, UniProt P27958, C1454S/C1711G); test: FRET peptide assay to monitor HCV NS3/4A proteolytic activity (H77 strain); type: biochemical, HCV genotype 1a
# T1 construct: recombinant HCV NS3/4A protease complex (amino acids 1027 to 1711) for these strains; His tag (inferred from pET21b vector and Ni-NTA purification); made in house; host or cells: Escherichia coli BL21 (DE3), pET21b
# T1 sequence (P27958 1027-1711 C1454S/C1711G, one chain of several): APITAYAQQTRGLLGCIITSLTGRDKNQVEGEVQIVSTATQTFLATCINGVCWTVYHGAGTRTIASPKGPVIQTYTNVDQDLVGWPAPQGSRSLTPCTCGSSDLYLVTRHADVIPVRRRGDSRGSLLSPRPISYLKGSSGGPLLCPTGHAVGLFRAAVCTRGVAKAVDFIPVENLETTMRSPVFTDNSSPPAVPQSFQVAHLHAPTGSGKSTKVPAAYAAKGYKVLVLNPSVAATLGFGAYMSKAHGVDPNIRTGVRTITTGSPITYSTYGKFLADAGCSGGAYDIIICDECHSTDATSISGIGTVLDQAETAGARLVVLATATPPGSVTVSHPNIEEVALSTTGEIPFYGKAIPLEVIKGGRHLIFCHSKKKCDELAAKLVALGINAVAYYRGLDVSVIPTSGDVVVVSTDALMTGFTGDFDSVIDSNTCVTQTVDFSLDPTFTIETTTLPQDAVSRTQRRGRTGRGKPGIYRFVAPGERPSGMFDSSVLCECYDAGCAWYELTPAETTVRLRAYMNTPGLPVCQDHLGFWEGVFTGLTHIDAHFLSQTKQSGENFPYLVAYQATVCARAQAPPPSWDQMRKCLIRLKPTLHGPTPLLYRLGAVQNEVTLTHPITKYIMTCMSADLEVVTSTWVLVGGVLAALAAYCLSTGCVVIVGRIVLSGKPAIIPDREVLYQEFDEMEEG
# Text: (§1) HCV NS3 protease complexes, derived from the BMS strain, H77 strain or J4L6S strain, were generated, as described below. These purified recombinant proteins were generated for use in a homogeneous assay (see below) to provide an indication of how effective compounds of the present disclosure would be in inhibiting HCV NS3 proteolytic activity.
# Serum from an HCV-infected patient was obtained from Dr. T. Wright, San Francisco Hospital. An engineered full-length cDNA (compliment deoxyribonucleic acid) template of the HCV genome (BMS strain) was constructed from DNA fragments obtained by reverse transcription-PCR (RT-PCR) of serum RNA (ribonucleic acid) and using primers selected on the basis of homology between other genotype 1a strains. From the determination of the entire genome sequence, a genotype 1a was assigned to the HCV isolate according to the classification of Simmonds et al. (See P Simmonds, K A Rose, S Graham, S W Chan, F McOmish, B C Dow, E A Follett, P L Yap and H Marsden, J. Clin. Microbiol., 31(6), 1493-1503 (1993)). […]
# [2] = target: T2, HCV NS3/4A protease complex, BMS strain (UniProt P27958, species not given/STRAIN_BMS); test: FRET peptide assay to monitor HCV NS3/4A proteolytic activity (BMS strain); type: biochemical, HCV genotype 1a
# T2 construct: for H77 and J4L6S; fused on or other part: Three-lysine solubilizing tail at the end of NS4A, for the H77 and J4L6S constructs; Purification on Ni-NTA and the pET21b vector imply a His tag
# T2 sequence (P27958 1027-1657, change not shown, one chain of several): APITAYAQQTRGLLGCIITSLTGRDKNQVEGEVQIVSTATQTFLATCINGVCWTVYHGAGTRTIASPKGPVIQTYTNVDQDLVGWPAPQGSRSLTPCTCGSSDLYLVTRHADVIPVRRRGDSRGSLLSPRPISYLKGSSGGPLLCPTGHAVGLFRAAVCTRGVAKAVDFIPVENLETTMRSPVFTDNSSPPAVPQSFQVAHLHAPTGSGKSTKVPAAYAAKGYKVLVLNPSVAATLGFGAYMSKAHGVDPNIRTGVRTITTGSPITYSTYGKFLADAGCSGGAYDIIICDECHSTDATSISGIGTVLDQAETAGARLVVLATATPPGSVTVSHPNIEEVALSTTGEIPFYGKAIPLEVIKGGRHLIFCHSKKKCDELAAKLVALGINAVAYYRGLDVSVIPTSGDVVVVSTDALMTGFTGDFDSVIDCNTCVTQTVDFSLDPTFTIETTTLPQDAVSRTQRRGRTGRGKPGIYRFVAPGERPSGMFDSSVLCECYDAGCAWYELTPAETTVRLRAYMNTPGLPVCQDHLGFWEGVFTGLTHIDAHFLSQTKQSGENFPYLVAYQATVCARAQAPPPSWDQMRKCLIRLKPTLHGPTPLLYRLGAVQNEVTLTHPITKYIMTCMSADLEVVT
# Text: as §1
# Serum from an HCV-infected patient was obtained from Dr. T. Wright, San Francisco Hospital. An engineered full-length cDNA (compliment deoxyribonucleic acid) template of the HCV genome (BMS strain) was constructed from DNA fragments obtained by reverse transcription-PCR (RT-PCR) of serum RNA (ribonucleic acid) and using primers selected on the basis of homology between other genotype 1a strains. From the determination of the entire genome sequence, a genotype 1a was assigned to the HCV isolate according to the classification of Simmonds et al. (See P Simmonds, K A Rose, S Graham, S W Chan, F McOmish, B C Dow, E A Follett, P L Yap and H Marsden, J. Clin. Microbiol., 31(6), 1493-1503 (1993)). […] The infectious clones, H77 (1a genotype) and J4L6S (1b genotype) were obtained from R. Purcell (NIH) and the sequences are published in Genbank (AAB67036, see Yanagi, M., Purcell, R. H., Emerson, S. U. and Bukh, J. Proc. Natl. Acad. Sci. U.S.A. 94(16), 8738-8743 (1997); AF054247, see Yanagi, M., St Claire, M., Shapiro, M., Emerson, S. U., Purcell, R. H. and Bukh, J, Virology 244 (1), 161-172. (1998)).
# The H77 and J4L6S strains were used for production of recombinant NS3/4A protease complexes. DNA encoding the recombinant HCV NS3/4A protease complex (amino acids 1027 to 1711) for these strains were manipulated as described by P. Gallinari et al. (see Gallinari P, Paolini C, Brennan D, Nardi C, Steinkuhler C, De Francesco R. Biochemistry. 38(17):5620-32, (1999)). Briefly, a three-lysine solubilizing tail was added at the 3′-end of the NS4A coding region. The cysteine in the P1 position of the NS4A-NS4B cleavage site (amino acid 1711) was changed to a glycine to avoid the proteolytic cleavage of the lysine tag. Furthermore, a cysteine to serine mutation was introduced by PCR at amino acid position 1454 to prevent the autolytic cleavage in the NS3 helicase domain. The variant DNA fragment was cloned in the pET21b bacterial expression vector (Novagen) and the NS3/4A complex was expressed in Escherichia. coli strain BL21 (DE3) (Invitrogen) following the protocol described by P. Gallinari et al. (see Gallinari P, Brennan D, Nardi C, Brunetti M, Tomei L, Steinkuhler C, De Francesco R., J Virol. 72(8):6758-69 (1998)) with modifications. Briefly, the NS3/4A protease complex expression was induced with 0.5 millimolar (mM) Isopropyl β-D-1-thiogalactopyranoside (IPTG) for 22 hours (h) at 20° C. A typical fermentation (1 Liter (L)) yielded approximately 10 grams (g) of wet cell paste. The cells were resuspended in lysis buffer (10 mL/g) consisting of 25 mM N-(2-Hydroxyethyl)Piperazine-N′-(2-Ethane Sulfonic acid) (HEPES), pH 7.5, 20% glycerol, 500 mM Sodium Chloride (NaCl), 0.5% Triton X-100, 1 microgram/milliliter (“μg/mL”) lysozyme, 5 mM Magnesium Chloride (MgCl2), 1 μg/ml DnaseI, 5 mM β-Mercaptoethanol (βME), Protease inhibitor-Ethylenediamine Tetraacetic acid (EDTA) free (Roche), homogenized and incubated for 20 minutes (min) at 4° C. The homogenate was sonicated and clarified by ultra-centrifugation at 235000 g for 1 h at 4° C. Imidazole was added to the supernatant to a final concentration of 15 mM and the pH adjusted to 8.0. The crude protein extract was loaded on a Nickel-Nitrilotriacetic acid (Ni-NTA) column pre-equilibrated with buffer B (25 mM HEPES, pH 8.0, 20% glycerol, 500 mM NaCl, 0.5% Triton X-100, 15 mM imidazole, 5 mM βME). The sample was loaded at a flow rate of 1 mL/min. The column was washed with 15 column volumes of buffer C (same as buffer B except with 0.2% Triton X-100). The protein was eluted with 5 column volumes of buffer D (same as buffer C except with 200 mM Imidazole). […]
smiles,measurement,setting,value
COc1c(O[C@@H]2C[C@H]3C(=O)N[C@]4(C(=O)NS(=O)(=O)C5CC5)C[C@H]4/C=C\CCCCC[C@H](NC(=O)OC(C)(C)C)C(=O)N3C2)ccc2c(Cl)nccc12 [Compound 3],IC50,[1],0.6 nM
same,IC50,"[2]; BMS strain, read-out: IC50 against the NS3/4A BMS strain in the enzyme assay",2.8 nM
same,IC50,"[2]; NS3/4A BMS strain, read-out: IC50 Activity Range",< 100 nM
